# Counter-ions that a name gives are not always drawn.
row,Compound,melting point [°C]
1,"Cc1nc2c(N)nc3cc(OCCC4CCN(C(=O)C(C)C)CC4)ccc3c2n1CC(C)C [Example 26, 1-(4-{2-[4-Amino-2-methyl-1-(2-methylpropyl)-1H-imidazo[4,5-c]quinolin-7-yloxy]ethyl}piperidin-1-yl)-2-methylpropan-1-one]",205.1 to 207.1
2,"CCCn1c(COCC)nc2c(N)nc3ccc(OC4CCNCC4)cc3c21 [Example 411, 2-(Ethoxymethyl)-8-(piperidin-4-yloxy)-1-propyl-1H-imidazo[4,5-c]quinolin-4-amine]",176 to 178
3,"CCOCc1nc2c(N)nc3cc(OCCN4CCOCC4)ccc3c2n1CC(C)(C)O [Example 647, 1-[4-Amino-2-(ethoxymethyl)-7-(2-morpholin-4-ylethoxy)-1H-imidazo[4,5-c]quinolin-1-yl]-2-methylpropan-2-ol]",161 to 163
4,"CCOCc1nc2c(N)nc3cc(OCCCCCCNS(C)(=O)=O)ccc3c2n1CC(C)(C)NC(=O)NC(C)C [Example 371, N-(6-{[4-Amino-2-(ethoxymethyl)-1-(2-{[(isopropylamino)carbonyl]amino}-2-methylpropyl)-1H-imidazo[4,5-c]quinolin-7-yl]oxy}hexyl)methanesulfonamide]",190 to 194
5,"CCCCc1nc2c(N)nc3ccc(OCC(=O)N(C)Cc4ccccc4)cc3c2n1C [Example 34, 2-[(4-Amino-2-butyl-1-methyl-1H-imidazo[4,5-c]quinolin-8-yl)oxy]-N-benzyl-N-methylacetamide]",167.4 to 168.8
6,"CCc1nc2c(N)nc3cc(OCC(=O)N4CCOCC4)ccc3c2n1CCOc1ccccc1 [Example 53, 2-Ethyl-7-(2-morpholin-4-yl-2-oxoethoxy)-1-(2-phenoxyethyl)-1H-imidazo[4,5-c]quinolin-4-amine]",208 to 209
7,"CCCn1c(COCC)nc2c(N)nc3cc(OC4CCN(C(=O)OC(C)(C)C)CC4)ccc3c21 [Example 415, tert-Butyl 4-{[4-amino-2-(ethoxymethyl)-1-propyl-1H-imidazo[4,5-c]quinolin-7-yl]oxy}piperidine-1-carboxylate]",194 to 195
8,"CCCn1c(COCC)nc2c(N)nc3ccc(OCC(=O)N4CCS(=O)(=O)CC4)cc3c21 [Example 565, 8-[2-(1,1-Dioxidothiomorpholin-4-yl)-2-oxoethoxy]-2-(ethoxymethyl)-1-propyl-1H-imidazo[4,5-c]quinolin-4-amine]",223 to 225
9,"CCOCc1nc2c(N)nc3cc(OCCN)ccc3c2n1CC(O)CO (stereo not shown) (as salt: hydrochloride) [Example 373, 3-[4-Amino-7-(2-aminoethoxy)-2-(ethoxymethyl)-1H-imidazo[4,5-c]quinolin-1-yl]propane-1,2-diol dihydrochloride]",221 to 223
10,"CCCCc1nc2c(N)nc3ccc(OCCCCC(=O)N4CCOCC4)cc3c2n1C (as salt: trifluoroacetate) [Example 31, 2-Butyl-1-methyl-8-[(5-morpholin-4-yl-5-oxopentyl)oxy]-1H-imidazo[4,5-c]quinolin-4-amine trifluoroacetate]",155.5 to 156.2

# Continued, values first:
row,melting point [°C],Compound
1,147.2 to 150.1,"CCCCc1nc2c(N)nc3ccc(OCCC4CCN(C(=O)C5CCCC5)CC4)cc3c2n1C [Example 40, 2-Butyl-8-{2-[1-(cyclopentylcarbonyl)piperidin-4-yl]ethoxy}-1-methyl-1H-imidazo[4,5-c]quinolin-4-amine]"
2,213 to 214.5,"CCc1nc2c(N)nc3cc(OS(C)(=O)=O)ccc3c2n1CCOc1ccccc1 (as salt: methanesulfonate) [Example 367, 4-Amino-2-ethyl-1-(2-phenoxyethyl)-1H-imidazo[4,5-c]quinolin-7-yl methanesulfonate]"
3,169 to 171,"CCOCc1nc2c(N)nc3cc(OCCCCCCNC(C)=O)ccc3c2n1CC(C)(C)NS(C)(=O)=O [Example 46, N-(6-{[4-Amino-2-ethoxymethyl-1-(2-methanesulfonylamino-2-methylpropyl)-1H-imidazo[4,5-c]quinolin-7-yl]oxy}hexyl)acetamide]"
4,164 to 167,"CCCn1c(COCC)nc2c(N)nc3ccc(OCCCCCCNS(C)(=O)=O)cc3c21 [Example 409, N-(6-{[4-Amino-2-(ethoxymethyl)-1-propyl-1H-imidazo[4,5-c]quinolin-8-yl]oxy}hexyl)methanesulfonamide]"
5,200 to 202,"CCCn1c(COCC)nc2c(N)nc3ccc(OCCNC(=O)N4CCOCC4)cc3c21 (as salt: hydrochloride) [Example 4, N-(2-{[4-Amino-2-(ethoxymethyl)-1-propyl-1H-imidazo[4,5-c]quinolin-8-yl]oxy}ethyl)morpholine-4-carboxamide]"
6,223 to 225,"CCc1nc2c(N)nc3cc(OCCNC(=O)NC(C)C)ccc3c2n1CC1CCOCC1 [Example 651, N-(2-{[4-Amino-2-ethyl-1-(tetrahydro-2H-pyran-4-ylmethyl)-1H-imidazo[4,5-c]quinolin-7-yl]oxy}ethyl)-N′-isopropylurea]"
7,167 to 169,"CCCn1c(COCC)nc2c(N)nc3ccc(OCCCCCCNC(=O)NC(C)C)cc3c21 [Example 408, N-(6-{[4-Amino-2-(ethoxymethyl)-1-propyl-1H-imidazo[4,5-c]quinolin-8-yl]oxy}hexyl)-N′-isopropylurea]"
8,219 to 220,"CCc1nc2c(N)nc3cc(OCC(=O)N4CCOCC4)ccc3c2n1CC(C)C [Example 30, 2-Ethyl-1-(2-methylpropyl)-7-(2-morpholin-4-yl-2-oxoethoxy)-1H-imidazo[4,5-c]quinolin-4-amine]"
9,162.5 to 164,"CCCc1nc2c(N)nc3cc(OCCCNC(=O)OC(C)(C)C)ccc3c2n1CC(C)C [Example 7, tert-Butyl 3-{[4-amino-1-(2-methylpropyl)-2-propyl-1H-imidazo[4,5-c]quinolin-7-yl]oxy}propylcarbamate]"
10,192 to 194,"CCCn1c(CCOC)nc2c(N)nc3cc(OC4CCOC4)ccc3c21 (stereo not shown) [Example 56, 2-(2-Methoxyethyl)-1-propyl-7-(tetrahydrofuran-3-yloxy)-1H-imidazo[4,5-c]quinolin-4-amine]"
11,173 to 175,"CCCn1c(COCC)nc2c(N)nc3ccc(OC4CCOC4)cc3c21 (stereo not shown) [Example 406, 2-(Ethoxymethyl)-1-propyl-8-(tetrahydrofuran-3-yloxy)-1H-imidazo[4,5-c]quinolin-4-amine]"
12,178 to 179.5,"CCCn1c(COCC)nc2c(N)nc3cc(OC4CCN(C(C)=O)CC4)ccc3c21 [Example 560, 7-[(1-Acetylpiperidin-4-yl)oxy]-2-(ethoxymethyl)-1-propyl-1H-imidazo[4,5-c]quinolin-4-amine]"
13,200 to 201,"CCc1nc2c(N)nc3cc(OCCNC(=O)OC(C)(C)C)ccc3c2n1CC1CCOCC1 [Example 551, tert-Butyl 2-{[4-amino-2-ethyl-1-(tetrahydro-2H-pyran-4-ylmethyl)-1H-imidazo[4,5-c]quinolin-7-yl]oxy}ethylcarbamate]"
14,166.5 to 168.5,"CCCc1nc2c(N)nc3cc(OCCCNS(C)(=O)=O)ccc3c2n1CC(C)C [Example 11, N-{3-[4-Amino-1-(2-methylpropyl)-2-propyl-1H-imidazo[4,5-c]quinolin-7-yloxy]propyl}methanesulfonamide]"
15,> 250,"CCOCc1nc2c(N)nc3cc(OCCCN4CCCC4=O)ccc3c2n1CCCCN (as salt: hydrochloride) [Example 398, 1-(3-{[4-Amino-1-(4-aminobutyl)-2-(ethoxymethyl)-1H-imidazo[4,5-c]quinolin-7-yl]oxy}propyl)pyrrolidin-2-one dihydrochloride]"

# — patent publication US9856254B2, “Alkoxy substituted imidazoquinolines” (3M INNOVATIVE PROPERTIES COMPANY, priority 2003, dated 2018)
